Experimental data as given in PubChem BioAssay (NCI).
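Following 48 hours of exposure in 96-well plates, responses at five concentrations were used to interpolate endpoints linearly. The concentration for 50% growth inhibition is given as GI50. TGI is the concentration that stops growth completely.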

Key:
Assay in all cases: inhibition of tumour cell growth, NCI panel, 48 h
[1] = tested on: OVCAR-3 ovarian
[2] = tested on: PC-3 prostate
[3] = tested on: NCI-H522 lung
[4] = tested on: UACC-257 melanoma
[5] = tested on: HS 578T breast
[6] = tested on: COLO 205 colon
[7] = tested on: RPMI-8226 leukemia
[8] = tested on: SN12C renal
[9] = tested on: SK-MEL-28 melanoma
[10] = tested on: SK-OV-3 ovarian
[11] = tested on: SK-MEL-5 melanoma
[12] = tested on: NCI-H460 lung
[13] = tested on: SW-620 colon
[14] = tested on: K-562 leukemia
[15] = tested on: MDA-MB-231 breast
[16] = tested on: NCI/ADR-RES ovarian
[17] = tested on: MDA-MB-435
[18] = tested on: A549 NSCLC
[19] = tested on: EKVX NSCLC
[20] = tested on: OVCAR-4 ovarian
[21] = tested on: A498 renal
[22] = tested on: SK-MEL-2 melanoma
[23] = tested on: HT29 colon
[24] = tested on: TK-10 renal
[25] = tested on: LOX IMVI melanoma
[26] = tested on: IGROV1 ovarian
[27] = tested on: HCT-15 colon
[28] = tested on: HOP-92 NSCLC
[29] = tested on: UO-31 renal
[30] = tested on: HL-60(TB) leukemia
[31] = tested on: MCF7 breast
[32] = tested on: OVCAR-5 ovarian
[33] = tested on: HOP-62 NSCLC
[34] = tested on: DU-145 prostate
[35] = tested on: MOLT-4 leukemia
[36] = tested on: SR leukemia
[37] = tested on: SF-268 CNS
[38] = tested on: BT-549 breast
[39] = tested on: SF-295 CNS
[40] = tested on: SF-539 CNS
[41] = tested on: U251 CNS
[42] = tested on: NCI-H226 lung
[43] = tested on: HCC-2998 colon
[44] = tested on: CCRF-CEM leukemia
[45] = tested on: 786-0 renal
[46] = tested on: SNB-19 CNS
[47] = tested on: RXF 393 renal
[48] = tested on: SNB-75 CNS
[49] = tested on: NCI-H23 lung
[50] = tested on: MALME-3M melanoma
[51] = tested on: HCT-116 colon
[52] = tested on: KM12 colon
[53] = tested on: T-47D breast
[54] = tested on: OVCAR-8 ovarian
[55] = tested on: UACC-62 melanoma
[56] = tested on: CAKI-1 renal
[57] = tested on: M14 melanoma

SMILES: COc1ccc(-c2cn(-c3cccc(C(=O)/C=C/c4cc(OC)c(OC)c(OC)c4)c3)c(=O)[nH]2)cc1
- GI50 [1]: 1.78 µM
- TGI [1]: 4.23 µM
- GI50 [2]: 6.22 µM
- TGI [2]: 39 µM
- GI50 [3]: 1.85 µM
- TGI [3]: 4.39 µM
- GI50 [4]: 3.04 µM
- TGI [4]: 12.1 µM
- GI50 [5]: 3.39 µM
- TGI [5]: 25.6 µM
- GI50 [6]: 1.84 µM
- TGI [6]: 3.89 µM
- GI50 [7]: 0.924 µM
- TGI [7]: > 100 µM
- GI50 [8]: 3.5 µM
- TGI [8]: 18.5 µM
- GI50 [9]: 2.03 µM
- TGI [9]: 4.04 µM
- GI50 [10]: 4.6 µM
- TGI [10]: 61.2 µM
- GI50 [11]: 2.03 µM
- TGI [11]: 5.25 µM
- GI50 [12]: 1.56 µM
- TGI [12]: 3.14 µM
- GI50 [13]: 0.452 µM
- TGI [13]: 1.61 µM
- GI50 [14]: 1.27 µM
- TGI [14]: > 100 µM
- GI50 [15]: 5.48 µM
- TGI [15]: 25.4 µM
- GI50 [16]: 1.7 µM
- TGI [16]: 4.67 µM
- GI50 [17]: 1.86 µM
- TGI [17]: 7.49 µM
- GI50 [18]: 11.8 µM
- TGI [18]: > 100 µM
- GI50 [19]: 4.2 µM
- TGI [19]: > 100 µM
- GI50 [20]: 3.57 µM
- TGI [20]: > 100 µM
- GI50 [21]: 4.21 µM
- TGI [21]: 14.5 µM
- GI50 [22]: 2.63 µM
- TGI [22]: 7.41 µM
- GI50 [23]: 1.28 µM
- TGI [23]: 2.58 µM
- GI50 [24]: 3.04 µM
- TGI [24]: 9.97 µM
- GI50 [25]: 0.725 µM
- TGI [25]: 2.3 µM
- GI50 [26]: 2.58 µM
- TGI [26]: 7.42 µM
- GI50 [27]: 1.38 µM
- TGI [27]: 4.7 µM
- GI50 [28]: 14.9 µM
- TGI [28]: 67.2 µM
- GI50 [29]: 1.91 µM
- TGI [29]: 6.73 µM
- GI50 [30]: 4.28 µM
- TGI [30]: > 100 µM
- GI50 [31]: 0.444 µM
- TGI [31]: 3.45 µM
- GI50 [32]: 2.64 µM
- TGI [32]: 5.51 µM
- GI50 [33]: 5.91 µM
- TGI [33]: 18.1 µM
- GI50 [34]: 2.61 µM
- TGI [34]: 8.76 µM
- GI50 [35]: 3.48 µM
- TGI [35]: > 100 µM
- GI50 [36]: 0.85 µM
- TGI [36]: > 100 µM
- GI50 [37]: 3.21 µM
- TGI [37]: 10.6 µM
- GI50 [38]: 2.59 µM
- TGI [38]: 8.92 µM
- GI50 [39]: 4.95 µM
- TGI [39]: 22 µM
- GI50 [40]: 2 µM
- TGI [40]: 4.09 µM
- GI50 [41]: 0.888 µM
- TGI [41]: 3.25 µM
- GI50 [42]: 35.2 µM
- TGI [42]: > 100 µM
- GI50 [43]: 1.64 µM
- TGI [43]: 3 µM
- GI50 [44]: 1.74 µM
- TGI [44]: > 100 µM
- GI50 [45]: 1.61 µM
- TGI [45]: 3.25 µM
- GI50 [46]: 4.38 µM
- TGI [46]: 15.8 µM
- GI50 [47]: 1.92 µM
- TGI [47]: 3.75 µM
- GI50 [48]: 4.59 µM
- TGI [48]: 17 µM
- GI50 [49]: 1.63 µM
- TGI [49]: 4.35 µM
- GI50 [50]: 1.79 µM
- TGI [50]: 6.24 µM
- GI50 [51]: 0.371 µM
- TGI [51]: 1.38 µM
- GI50 [52]: 1.42 µM
- TGI [52]: 2.75 µM
- GI50 [53]: 3.84 µM
- TGI [53]: 22.4 µM
- GI50 [54]: 2.53 µM
- TGI [54]: 15.3 µM
- GI50 [55]: 2.06 µM
- TGI [55]: 4.85 µM
- GI50 [56]: 3.05 µM
- TGI [56]: 13.2 µM
- GI50 [57]: 1.85 µM
- TGI [57]: 5.21 µM
